Source: publication PMC9466612, “Enaminone-based carboxylic acids as novel non-classical carbonic anhydrases inhibitors: design, synthesis and in vitro biological assessment” (Journal of Enzyme Inhibition and Medicinal Chemistry, 2022)
Like-named read-outs stand apart in the source and are kept apart here.

What was measured:
Test in all cases: stopped-flow CO2 hydrase assay
Assay type in all cases: biochemical
hCA II [1] = molecular target: T1, hCA II (Homo sapiens, UniProt P00918)
T1 construct: gene CA2
Source text: stopped-flow CO2 hydrase assay on hCA II

hCA I = molecular target: T2, hCA I (Homo sapiens, UniProt P00915)
T2 construct: gene CA1; cytosolic isoform
T2 sequence (P00915 2-261): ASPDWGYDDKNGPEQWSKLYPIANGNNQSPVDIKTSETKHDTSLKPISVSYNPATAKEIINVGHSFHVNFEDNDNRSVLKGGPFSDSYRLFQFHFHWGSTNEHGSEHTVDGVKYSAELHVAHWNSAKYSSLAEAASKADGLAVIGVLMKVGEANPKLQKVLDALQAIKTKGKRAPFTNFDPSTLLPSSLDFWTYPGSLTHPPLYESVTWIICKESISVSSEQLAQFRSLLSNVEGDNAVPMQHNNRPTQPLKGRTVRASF
Source text: stopped-flow CO2 hydrase assay on hCA I

hCA IX [2] = molecular target: T3, hCA IX (Homo sapiens, UniProt Q16790)
T3 construct: gene CA9; trans-membrane isoform
Source text: stopped-flow CO2 hydrase assay on hCA IX

hCA XII [3] = molecular target: T4, hCA XII (Homo sapiens, UniProt O43570)
T4 construct: gene CA12; trans-membrane isoform
T4 sequence (O43570 30-289 limits assumed): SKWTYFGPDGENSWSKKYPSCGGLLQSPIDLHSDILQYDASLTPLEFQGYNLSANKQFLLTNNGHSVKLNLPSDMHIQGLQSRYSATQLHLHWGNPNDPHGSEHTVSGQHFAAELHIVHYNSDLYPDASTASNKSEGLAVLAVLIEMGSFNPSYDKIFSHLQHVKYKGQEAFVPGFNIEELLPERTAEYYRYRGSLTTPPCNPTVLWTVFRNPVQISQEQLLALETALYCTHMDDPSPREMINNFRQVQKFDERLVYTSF
Source text: stopped-flow CO2 hydrase assay on hCA XII

hCA II [4] = molecular target: T1, hCA II; details: read-out: KI (μM)^a / hCA I
hCA IX [5] = molecular target: T3, hCA IX; details: read-out: KI (μM)^a / hCA I
hCA XII [6] = molecular target: T4, hCA XII; details: read-out: KI (μM)^a / hCA I

Row | SMILES | Ki (hCA II [1]) [µM] | Ki (hCA I) [µM] | Ki (hCA IX [2]) [µM] | Ki (hCA XII [3]) [µM] | Ki (hCA II [4]) [µM] | Ki (hCA IX [5]) [µM] | Ki (hCA XII [6]) [µM]
1 | O=C(/C=C\Nc1ccccc1C(=O)O)c1ccc(Cl)cc1 [5c] | 32.7 | > 100 | 17.7 | 12.5 |  |  | 
2 | O=C(O)c1cccc(NC=CC(=O)c2ccccc2)c1 [5f] | 72.8 | > 100 | 15.9 | 9.5 |  |  | 
3 | O=C(O)c1ccc(NC=CC(=O)c2ccc(Cl)cc2)cc1 [5n] | 13.5 | 81.5 | 3.4 | 4.6 |  |  | 
4 | O=C(O)CNC(=O)c1ccc(N/C=C/C(=O)c2ccc3ccccc3c2)cc1 [12c] |  | > 100 |  |  | > 100 | > 100 | > 100
5 | O=C(/C=C\Nc1ccccc1C(=O)O)c1ccc([N+](=O)[O-])cc1 [5d] | 26.9 | > 100 | 14.1 | 7.8 |  |  | 
6 | O=C(/C=C\Nc1ccccc1C(=O)O)c1ccc(F)cc1 [5b] | 24.3 | > 100 | 13.2 | 4.3 |  |  | 
7 | O=C(/C=C\Nc1ccccc1C(=O)O)c1ccc2ccccc2c1 [5e] | 49 | > 100 | 19.3 | 15.7 |  |  | 
8 | O=C(O)c1cccc(NC=CC(=O)c2ccc(Cl)cc2)c1 [5h] | 77.1 | > 100 | 19.2 | 8.6 |  |  | 
9 | O=C(O)c1ccc(NC=CC(=O)c2ccc([N+](=O)[O-])cc2)cc1 [5p] | 12.6 | 95.6 | 4.1 | 0.85 |  |  | 
10 | O=C(O)c1ccc(NC=CC(=O)c2ccc(F)cc2)cc1 [5m] | 8.7 | 68.8 | 0.92 | 1.1 |  |  | 
11 | O=C(O)c1cccc(NC=CC(=O)c2ccc(F)cc2)c1 [5g] | 68.2 | > 100 | 9.6 | 10.3 |  |  | 
12 | O=C(O)c1cccc(NC=CC(=O)c2ccc3ccccc3c2)c1 [5k] | 92.3 | > 100 | 11.4 | 9.7 |  |  | 
13 | O=C(O)c1cccc(NC=CC(=O)c2ccc([N+](=O)[O-])cc2)c1 [5j] | 80.7 | > 100 | 24.7 | 8.9 |  |  | 

Further lines, results first:

Row | Ki (hCA II [1]) [µM] | Ki (hCA I) [µM] | Ki (hCA IX [2]) [µM] | Ki (hCA XII [3]) [µM] | Ki (hCA II [4]) [µM] | Ki (hCA IX [5]) [µM] | Ki (hCA XII [6]) [µM] | SMILES
14 |  | > 100 |  |  | > 100 | > 100 | > 100 | O=C(O)CNC(=O)c1ccc(N/C=C/C(=O)c2ccc(Br)cc2)cc1 [12b]
15 | 39.4 | > 100 | 10.6 | 6.4 |  |  |  | O=C(/C=C\Nc1ccccc1C(=O)O)c1ccccc1 [5a]
16 | 16.7 | 63.8 | 8.3 | 9.1 |  |  |  | O=C(O)c1ccc(NCCC(=O)c2ccccc2)cc1 [7b, 3/4-((3-oxo-3-phenylpropyl)amino)benzoic acids 7a–b]
17 | 15.3 | > 100 | 5.6 | 6.2 |  |  |  | O=C(O)c1ccc(NC=CC(=O)c2ccc(Br)cc2)cc1 [5o]
18 | 7.4 | 79.4 | 0.76 | 1.5 |  |  |  | O=C(O)c1ccc(NC=CC(=O)c2ccc3ccccc3c2)cc1 [5q]
19 | 81.4 | > 100 | 32.5 | 13.9 |  |  |  | O=C(O)c1cccc(NC=CC(=O)c2ccc(Br)cc2)c1 [5i]
20 | 64.3 | > 100 | 23.7 | 7.4 |  |  |  | O=C(O)c1cccc(NCCC(=O)c2ccccc2)c1 [7a, 3/4-((3-oxo-3-phenylpropyl)amino)benzoic acids 7a–b]
21 | 9.8 | 75.3 | 1.2 | 0.97 |  |  |  | O=C(O)c1ccc(NC=CC(=O)c2ccccc2)cc1 [5l]
22 |  | > 100 |  |  | > 100 | > 100 | > 100 | O=C(O)CNC(=O)c1ccc(NC=CC(=O)c2ccccc2)cc1 [12a]
